Structures can show the parent of a compound that is named as a salt.
Experiments:
[1] = target: T1, Human vitronectin receptor (αvβ3) (Homo sapiens, UniProt P05106+P06756); experiment: Vitronectin adhesion assay (solid phase receptor assay, competition with biotinylated vitronectin); type: binding; details: read-out: AvB3 IC50
T1 construct: Human vitronectin receptor (αvβ3) was purified from human placenta; from tissue; host or cells: human placenta
Procedure: VITRONECTIN ADHESION ASSAY
Assay buffer, OPD substrate tablets, and RIA grade BSA were obtained from Sigma (St. Louis, Mo.). Anti-biotin antibody was obtained from Calbiochem (La Jolla, Calif.). Linbro microtiter plates were obtained from Flow Labs (McLean, Va.). ADP reagent was obtained from Sigma (St. Louis, Mo.).
(§1) Solid Phase Receptor Assays
(§2) The purified human vitronectin receptor (αvβ3) was diluted from stock solutions to 1.0 μg/mL in Tris-buffered saline containing 1.0 mM Ca^++, Mg^++, and Mn^++, pH 7.4 (TBS^+++). The diluted receptor was immediately transferred to Linbro microtiter plates at 100 μL/well (100 ng receptor/well). The plates were sealed and incubated overnight at 4° C. to allow the receptor to bind to the wells. All remaining steps were at room temperature. The assay plates were emptied and 200 μL of 1% RIA grade BSA in TBS^+++(TBS^+++/BSA) were added to block exposed plastic surfaces. Following a 2 hour incubation, the assay plates were washed with TBS^+++ using a 96 well plate washer. Logarithmic serial dilution of the test compound and controls were made starting at a stock concentration of 2 mM and using 2 nM biotinylated vitronectin in TBS^+++/BSA as the diluent. This premixing of labeled ligand with test (or control) ligand, and subsequent transfer of 50 μL aliquots to the assay plate was carried out with a CETUS Propette robot; the final concentration of the labeled ligand was 1 nM and the highest concentration of test compound was 1.0×10^−4 M. The competition occurred for two hours after which all wells were washed with a plate washer as before. Affinity purified horseradish peroxidase labeled goat anti-biotin antibody was diluted 1:3000 in TBS^+++/BSA and 125 μL were added to each well. After 30 minutes, the plates were washed and incubated with OPD/H2O2 substrate in 100 mM/L Citrate buffer, pH 5.0. The plate was read with a microtiter plate reader at a wavelength of 450 nm and when the maximum-binding control wells reached an absorbance of about 1.0, the final A450 were recorded for analysis. The data were analyzed using a macro written for use with the EXCEL™ spreadsheet program. The mean, standard deviation, and % CV were determined for duplicate concentrations. The mean A450 values were normalized to the mean of four maximum-binding controls (no competitor added)(B-MAX). The normalized values were subjected to a four parameter curve fit algorithm [Rodbard et al., Int.

[2] = target: T2, Human fibrinogen receptor (αIIbβ3) (Homo sapiens, UniProt P05106+P08514); experiment: Purified IIb/IIIa receptor assay (solid phase receptor assay, competition with biotinylated vitronectin); type: binding; details: read-out: IIb/IIIa IC50
T2 construct: Human fibrinogen receptor (αIIbβ3) was purified from outdated platelets; from tissue; host or cells: outdated human platelets
Procedure: PURIFIED IIb/IIIa RECEPTOR ASSAY
Human fibrinogen receptor (αIIbβ3) was purified from outdated platelets. […] Biotinylated human vitronectin was prepared by coupling NHS-biotin from Pierce Chemical Company (Rockford, Ill.) to purified vitronectin as previously described. […] Anti-biotin antibody was obtained from Calbiochem (La Jolla, Calif.). Linbro microtiter plates were obtained from Flow Labs (McLean, Va.). ADP reagent was obtained from Sigma (St. Louis, Mo.).
as §1
as §2, with “human fibrinogen” for “human vitronectin”, “receptor (αIIbβ3)” for “receptor (αvβ3)”, “in TBS^+++ (TBS^+++/BSA)” for “in TBS^+++(TBS^+++/BSA)”, “with […]” for “with OPD/H2O2”, “mM/L citrate” for “mM/L Citrate”, “fit algorithm, [Robard” for “fit algorithm [Rodbard”

| SMILES | IC50 [1] [nM] | IC50 [2] [nM] |
| --- | --- | --- |
| O=C(O)CC(NC(=O)CNC(=O)c1cccc(NC2=NCCCN2)c1)c1cc(Cl)cc(Br)c1 (racemic) [Example 215, (±)3-bromo-5-chloro-β-[[2-[[[3-[(1,4,5,6-tetrahydropyrimidin-2-yl)amino]phenyl]carbonyl]amino]acetyl]amino]-benzenepropanoic acid, trifluoroacetate salt] | 0.41 | 656 |
| CCOC(=O)CC(NC(=O)CNC(=O)c1cccc(NC(N)=S)c1)c1ccccc1 (stereo not drawn) [Example 116, ethyl β-[[2-[[[3-[(aminothioxomethyl)amino]phenyl]carbonyl]amino]acetyl]amino]benzenepropanoate] | 15500 | > 100000 |
| O=C(O)CC(NC(=O)CNC(=O)c1cccc(NC2=NCCCN2)c1)c1cc(Cl)cc(Br)c1O (racemic) [Example 236, (±)3-bromo-5-chloro-2-hydroxy-β-[[2-[[[3-[(1,4,5,6-tetrahydropyrimidin-2-yl)amino]phenyl]carbonyl]amino]acetyl]amino]benzenepropanoic acid, trifluoroacetate salt, monohydrate] | 0.53 | 1250 |
| C#C[C@H](CC(=O)OCC)NC(=O)CNC(=O)c1cccc(NC(=N)N)c1 [Example 58, ethyl 3S-[[2-[[[3-[(aminoiminomethyl)amino]phenyl)carbonyl]amino]acetyl]amino]-4-pentynoate, trifluoroacetate salt] | 162 | 5740 |
| N=C(N)Nc1cccc(C(=O)NCC(=O)NC(CC(=O)O)C2CCCCC2)c1 (racemic) [Example 229, (±)β-[[2-[[[3-[(aminoiminomethyl)amino]phenyl]carbonyl]amino]acetyl]amino]cyclohexanepropanoic acid, trifluoroacetate salt, monohydrate] | 39.1 | 10600 |
| N=C(N)Nc1cccc(C(=O)NCC(=O)NC(CC(=O)O)c2cccc(Br)c2)c1 (racemic) [Example 185, (±)β-[[2-[[[3-[(aminoiminomethyl)amino]phenyl]carbonyl]amino]acetyl]amino]-3-bromobenzenepropanoic acid, trifluoroacetate salt] | 1.47 | 166 |
| N=C(N)Nc1cccc(C(=O)NCC(=O)NC(CC(=O)O)c2cccc(Cl)c2)c1 (racemic) [Example 183, (±)β-[[2-[[[3-[(aminoiminomethyl)amino]phenyl]carbonyl]amino]acetyl]amino]-3-chlorobenzenepropanoic acid, trifluoroacetate salt] | 1.58 | 258 |
| O=C(O)CC(NC(=O)CNC(=O)c1cccc(NC2=NCCC2)c1)c1cc(Cl)cc(Cl)c1 (racemic) [Example 203, (±)β-[[2-[[[3-[(3,4-dihydro-2H-pyrrol-5-yl)amino]phenyl]carbonyl]amino]acetyl]amino]-3,5-dichlorobenzenepropanoic acid, trifluoroacetate salt] | 3.56 | 650 |

More lines, now with the values ahead:

| IC50 [1] [nM] | IC50 [2] [nM] | SMILES |
| --- | --- | --- |
| 0.45 | 150 | O=C(O)CC(NC(=O)CNC(=O)c1cccc(NC2=NCCCS2)c1)c1cccnc1 (stereo not drawn) [Example 278, β-[[2-[[[3-[(5,6-dihydro-4H-thiazin-2-yl)amino]phenyl]carbonyl]amino]acetyl]amino]pyridine-3-propanoic acid, bis(trifluoroacetate)salt] |
| 413 | 8090 | O=C(O)CC(NC(=O)CNC(=O)c1cccc(Nc2nc3ccccc3o2)c1)c1cccnc1 (stereo not drawn) [Example 286, β-[[2-[[[3-[[benzoxazol-2-yl)amino]phenyl]carbonyl]amino]acetyl]amino]pyridine-3-propanoic acid, trifluoroacetate salt] |
| 557 | 17200 | CCOC(=O)NC(=N)Nc1cccc(C(=O)NCC(=O)NC(CC(=O)O)c2cc(Cl)cc(Cl)c2)c1 (stereo not drawn) [Example 241, 3,5-dichloro-β-[[2-[[[3-[[[(ethoxycarbonyl)amino]iminomethyl]amino]phenyl]carbonyl]amino]acetyl]amino]benzenepropanoic acid, trifluoroacetate salt, monohydrate] |
| 7.24 | 802 | Cc1cccc(C(CC(=O)O)NC(=O)CNC(=O)c2cccc(NC(=N)N)c2)n1 (racemic) [Example 246, (±)β-[[2-[[[3-[(aminoiminomethyl)amino]phenyl]carbonyl]amino]acetyl]amino]-6-methylpyridine-2-propanoic acid, bis(trifluoroacetate)salt] |
| 173 | 1990 | C/N=C(\NC)Nc1cccc(C(=O)NCC(=O)NC(CC(=O)O)c2cc(Cl)cc(Cl)c2)c1 (racemic) [Example 294, (±)3,5-dichloro-β-[[2-[[[3-[[(methylamino)(methylimino)methyl]amino]phenyl]carbonyl]amino]acetyl]amino]benzenepropanoic acid, trifluoroacetate salt] |
| 195 | 18400 | O=C(O)CC(NC(=O)CNC(=O)c1cccc(Nc2cc(=O)[nH]c(=O)[nH]2)c1)c1cc(Cl)cc(Cl)c1 (stereo not drawn) [Example 284, 3,5-dichloro-β-[[2-[[[3-[[1,2,3,4-tetrahydro-2,4-dioxopyrimidin-6-yl)amino]phenyl]carbonyl]amino]acetyl]amino]benzenepropanoic acid] |
| 3.58 | 223 | N=C(N)Nc1cccc(C(=O)NCC(=O)NC(CC(=O)O)c2ncc[nH]2)c1 (racemic) [Example 364, (±)β-[[2-[[[3-[(aminoiminomethyl)amino]phenyl]carbonyl]amino]acetyl]amino]-1H-imidazole-2-propanoic acid, tris(trifluoroacetate)salt] |
| 0.44 | 91.3 | N=C(N)Nc1cccc(C(=O)NCC(=O)NC(CC(=O)O)c2ccc(Br)s2)c1 (stereo not drawn) [Example 366, β-[[2-[[[3-[(aminoiminomethyl)amino]phenyl]carbonyl]amino]acetyl]amino]-5-bromothiophene-2-propanoic acid, trifluoroacetate salt, monohydrate] |
| 6.47 | 4710 | N=C(N)Nc1cccc(C(=O)NCC(=O)NC(CC(=O)O)C(F)(F)F)c1 (stereo not drawn) [Example 261, 3-[[2-[[[3-[(aminoiminomethyl)amino]phenyl]carbonyl]aminoacetyl]amino]-4,4,4-trifluorobutanoic acid, trifluoroacetate salt] |
| 1.25 | 111 | N=C(N)Nc1cccc(C(=O)NCC(=O)NC(CC(=O)O)c2cc(Br)c(O)c(Br)c2)c1 (stereo not drawn) [Example 276, β-[[2-[[[3-[(aminoiminomethyl)amino]phenyl)carbonyl]amino]acetyl]amino]-3,5-dibromo-4-hydroxybenzenepropanoic acid, trifluoroacetate salt] |
